26 compounds from patent US12116358B2, “Substituted indoles and methods of use thereof” (EPIZYME, INC., priority 2018, dated 2024) can be followed below.

Bounds are passed on as bounds.

The first experiment concerns the target T1, SETD2(1434-1711) (Homo sapiens, UniProt Q9BYW2).
T1 construct: SETD2 (1434-1711) Assay; catalogue N/A
T1 sequence (Q9BYW2 1434-1711): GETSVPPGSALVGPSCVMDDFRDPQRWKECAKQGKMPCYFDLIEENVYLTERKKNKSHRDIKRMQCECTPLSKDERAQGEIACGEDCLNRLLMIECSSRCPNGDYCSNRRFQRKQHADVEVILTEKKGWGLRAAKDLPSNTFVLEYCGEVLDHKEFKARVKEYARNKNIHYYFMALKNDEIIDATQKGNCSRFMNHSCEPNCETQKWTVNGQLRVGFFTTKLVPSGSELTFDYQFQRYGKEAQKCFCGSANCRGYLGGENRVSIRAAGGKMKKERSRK
The experiment in a line: SETD2 (1434-1711) assay. The settings on record: read-out: SETD2 (1434-1711). The experiment is classed as biochemical.
Consider `Cc1cc(-c2ncc[nH]2)cnc1C(NC(=O)c1cc2cccc(C)c2[nH]1)C1CC1` (stereo not shown) [compound 445], for which the IC50 was 1400 nM.
On the same count and under the same terms, with `Cc1ccc(F)c2cc(C(=O)Nc3cccc(-c4c[nH]cn4)c3)[nH]c12` [compound 337] the figure was 400 nM.
For the compound `CC(=O)N1C(C)CN(C2CCCC(NC(=O)c3cc4c(F)ccc(C)c4[nH]3)C2)CC1C` (stereo not shown) [compound 1163], the IC50 was 1600 nM.
Consider `Cc1nc([C@H]2CCC[C@@H](NC(=O)c3cc4c(F)ccc(C)c4[nH]3)C2)no1` [compound 1011], for which the IC50 is 300 nM.
The same measure, in the same setting: with `Cc1ccc(F)c2cc(C(=O)Nc3cccc(-c4ccn[nH]4)c3)[nH]c12` [compound 322] the figure was 500 nM; with `Cc1ccc(F)c2cc(C(=O)Nc3cccc(N4CCC5C(CCN5C)C4)c3)[nH]c12` (stereo not shown) [compound 172], 20 nM.
Consider `Cc1cc(CCNC(=O)Cc2cccnc2)cnc1C(NC(=O)c1cc2cccc(C)c2[nH]1)C1CC1` (stereo not shown) [compound 447], for which the IC50 came to 2800 nM.
Still for that read-out and setting: then `Cc1ccc(F)c2cc(C(=O)Nc3cccc(Cc4ncc[nH]4)c3)[nH]c12` [compound 357], with 700 nM.
Still for that read-out and setting: with `CC(=O)N1[C@H](C)CN([C@H]2CCC[C@@H](NC(=O)c3cc4c(F)ccc(C)c4[nH]3)C2)C[C@H]1C` [compound 1062] the figure was 10 nM; with `Cc1ccc(F)c2cc(C(=O)NC3COCC(c4cncnc4)C3)[nH]c12` (stereo not shown) [compound 368], 6100 nM.
With `Cc1cccc2cc(C(=O)Nc3cccc(CN4CCN(C)CC4)c3)[nH]c12` [compound 488], the IC50 amounted to 2500 nM.
As for `CC(=O)N1CCN(C2CCCC(NC(=O)c3cc4c(F)ccc(C)c4[nH]3)C2)CC1C` (stereo not shown) [compound 968], the IC50 was 1900 nM.
The same measure, in the same setting: then `Cc1cccc2cc(C(=O)Nc3ccc4nccn4c3)[nH]c12` [compound 459], with 1500 nM.
Still for that read-out and setting: then `Cc1ccc(F)c2cc(C(=O)NC3CCCC(N4CCNCC4)C3)[nH]c12` (stereo not shown) [compound 956], with 100 nM; and `Cc1ccc(F)c2cc(C(=O)Nc3cccc(-c4cc(N)n[nH]4)c3)[nH]c12` [compound 444], with 400 nM; and `Cc1ccc(F)c2cc(C(=O)Nc3cccc(C4(O)CCC(N(C)C)CC4)c3)[nH]c12` (stereo not shown) [compound 195], with 40 nM.
On the same count and under the same terms, then `Cc1ccc(F)c2cc(C(=O)Nc3cccc(CC4CCCN(C)C4)c3)[nH]c12` (stereo not shown) [compound 352], with 100 nM; and `Cc1ccc(F)c2cc(C(=O)Nc3cccc(N4CCOCC4=O)c3)[nH]c12` [compound 209], with 200 nM; and `Cc1ccc(F)c2cc(C(=O)Nc3cccc(N4CCC(N5CC(O)C5)C4)c3)[nH]c12` (stereo not shown) [compound 174], with 50 nM.
As for `Cc1ccc(F)c2cc(C(=O)Nc3cccc(N4CCN(C(C)c5ccccc5)CC4)c3)[nH]c12` (stereo not shown) [compound 417], the IC50 was determined as 900 nM.
On the same count and under the same terms, then `Cc1ccc(F)c2cc(C(=O)N[C@@H]3CCC[C@@H](N4CCn5cnnc5C4)C3)[nH]c12` [compound 861], with 1900 nM; and `Cc1ccc(F)c2cc(C(=O)NC3CCCC(N4CCN5C(=O)NCC5C4)C3)[nH]c12` (stereo not shown) [compound 1050], with 1000 nM.
The same measure, in the same setting: then `CC(=O)N1C2CCC1CN(c1cccc(NC(=O)c3cc4c(F)ccc(C)c4[nH]3)c1)C2` [compound 163], with 30 nM; and `Cc1cc(CN2CCN(C)CC2)cnc1C(NC(=O)c1cc2cccc(C)c2[nH]1)C1CC1` (stereo not shown) [compound 477], with 2100 nM; and `Cc1ccc(F)c2cc(C(=O)N[C@@H]3CCC[C@H](N4CCn5c(cn(C)c5=O)C4)C3)[nH]c12` [compound 1057], with 40 nM.
Still for that read-out and setting: then `Cc1cccc2cc(C(=O)NCc3cccc4ccnn34)[nH]c12` [compound 570], with 15000 nM.

The subject of the next experiment is H3K36me3 in A549 cells. Put plainly: In-Cell Western (ICW) assay of SETD2 inhibitors (A549 assay). The note with it: A549 cells; read-out: SETD2 A549. The experiment is classed as cell-based, human. A digest of the protocol:
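A549 cells seeded at 4,000/well onto compound and incubated 3 days at 37° C. Methanol-fixed cells stained overnight at 4° C with anti-H3K36me3 (1:1000), then IRDye 800CW secondary with DRAQ5 DNA counterstain. Plates read by Licor imaging at 700 and 800 channels.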
For `Cc1ccc(F)c2cc(C(=O)Nc3cccc(-c4c[nH]cn4)c3)[nH]c12` [compound 337], the IC50 came out at 1600 nM.
Take `CC(=O)N1C(C)CN(C2CCCC(NC(=O)c3cc4c(F)ccc(C)c4[nH]3)C2)CC1C` (stereo not shown) [compound 1163]: the IC50 is above 2000 nM.
On the same count and under the same terms, then `Cc1ccc(F)c2cc(C(=O)Nc3cccc(N4CCC5C(CCN5C)C4)c3)[nH]c12` (stereo not shown) [compound 172], with 300 nM; and `Cc1cc(CCNC(=O)Cc2cccnc2)cnc1C(NC(=O)c1cc2cccc(C)c2[nH]1)C1CC1` (stereo not shown) [compound 447], with 5500 nM; and `Cc1ccc(F)c2cc(C(=O)Nc3cccc(Cc4ncc[nH]4)c3)[nH]c12` [compound 357], with above 2000 nM.
On the same count and under the same terms, with `Cc1ccc(F)c2cc(C(=O)NC3COCC(c4cncnc4)C3)[nH]c12` (stereo not shown) [compound 368] the figure was above 2000 nM; with `Cc1cccc2cc(C(=O)Nc3cccc(CN4CCN(C)CC4)c3)[nH]c12` [compound 488], 11800 nM; with `CC(=O)N1CCN(C2CCCC(NC(=O)c3cc4c(F)ccc(C)c4[nH]3)C2)CC1C` (stereo not shown) [compound 968], above 2000 nM.
On the same count and under the same terms, with `Cc1cccc2cc(C(=O)Nc3ccc4nccn4c3)[nH]c12` [compound 459] the figure was 6200 nM.
Regarding `Cc1ccc(F)c2cc(C(=O)NC3CCCC(N4CCNCC4)C3)[nH]c12` (stereo not shown) [compound 956], the IC50 is 700 nM.
The same measure, in the same setting: with `Cc1ccc(F)c2cc(C(=O)Nc3cccc(-c4cc(N)n[nH]4)c3)[nH]c12` [compound 444] the figure was 5200 nM.
In the case of `Cc1ccc(F)c2cc(C(=O)Nc3cccc(N4CCN(C(C)c5ccccc5)CC4)c3)[nH]c12` (stereo not shown) [compound 417], the IC50 turned out to be 3400 nM.
On the same count and under the same terms, then `Cc1ccc(F)c2cc(C(=O)N[C@@H]3CCC[C@@H](N4CCn5cnnc5C4)C3)[nH]c12` [compound 861], with above 2000 nM; and `Cc1ccc(F)c2cc(C(=O)NC3CCCC(N4CCN5C(=O)NCC5C4)C3)[nH]c12` (stereo not shown) [compound 1050], with above 2000 nM; and `CC(=O)N1C2CCC1CN(c1cccc(NC(=O)c3cc4c(F)ccc(C)c4[nH]3)c1)C2` [compound 163], with 300 nM.

Still in this experiment, the particulars now being: Homo sapiens; A549 cells; read-out: SETD2 A549.
On to `Cc1cc(-c2ncc[nH]2)cnc1C(NC(=O)c1cc2cccc(C)c2[nH]1)C1CC1` (stereo not shown) [compound 445], for which the IC50 is 5200 nM.
For the compound `Cc1nc([C@H]2CCC[C@@H](NC(=O)c3cc4c(F)ccc(C)c4[nH]3)C2)no1` [compound 1011], the IC50 turned out to be 900 nM.
With `Cc1ccc(F)c2cc(C(=O)Nc3cccc(-c4ccn[nH]4)c3)[nH]c12` [compound 322], the IC50 came out at 1500 nM.
Same read-out and setting: then `CC(=O)N1[C@H](C)CN([C@H]2CCC[C@@H](NC(=O)c3cc4c(F)ccc(C)c4[nH]3)C2)C[C@H]1C` [compound 1062], with 10 nM; and `Cc1ccc(F)c2cc(C(=O)Nc3cccc(C4(O)CCC(N(C)C)CC4)c3)[nH]c12` (stereo not shown) [compound 195], with 400 nM.
Same read-out and setting: then `Cc1ccc(F)c2cc(C(=O)Nc3cccc(CC4CCCN(C)C4)c3)[nH]c12` (stereo not shown) [compound 352], with above 2000 nM.
On the same count and under the same terms, then `Cc1ccc(F)c2cc(C(=O)Nc3cccc(N4CCOCC4=O)c3)[nH]c12` [compound 209], with 400 nM.
On to `Cc1ccc(F)c2cc(C(=O)Nc3cccc(N4CCC(N5CC(O)C5)C4)c3)[nH]c12` (stereo not shown) [compound 174], for which the IC50 amounted to 300 nM.
Turning to `Cc1cc(CN2CCN(C)CC2)cnc1C(NC(=O)c1cc2cccc(C)c2[nH]1)C1CC1` (stereo not shown) [compound 477], the IC50 came out at 9300 nM.
In the case of `Cc1ccc(F)c2cc(C(=O)N[C@@H]3CCC[C@H](N4CCn5c(cn(C)c5=O)C4)C3)[nH]c12` [compound 1057], the IC50 was 100 nM.
Turning to `Cc1cccc2cc(C(=O)NCc3cccc4ccnn34)[nH]c12` [compound 570], the IC50 is above 25000 nM.
